≈ marks a conversion by molar mass, not a printed value.
Columns and labels:
[1] = system: proton motive force-driven multidrug efflux pump of P. mirabilis HI4320; assay: Ethidium bromide (EtBr) efflux assay; format: cell-based, Proteus mirabilis; settings: PRMSE, catechol at 0.25 times the MIC; CCCP 100 μM; untreated cells 35.9
Method: (§1) An overnight grown culture of each strain is diluted 1:100 using MHB-II broth to a final volume of 10 mL and grown to an OD600 of 0.8-1.0 (at 37° C., 150 rpm). […] The tubes are incubated for 1 h (37° C., 150 rpm). The inoculum is then adjusted to 0.4 OD600 with MHB-II broth containing 5 μM EtBr and 2 mL aliquots of this mixture are pelleted (5000×g, 10 min at 4° C.). The pellets are incubated on ice immediately, resuspended in 1 mL of MHB-II, and aliquoted (200 μL) into a polystyrene 96 well black, clear-bottom plate (Corning™, Fisher Scientific, ON, Canada). EtBr efflux from the cells is monitored at room temperature using the microplate reader (ex/em 530/600 nm). Readings are taken at 5 min intervals for 1 h to monitor efflux pump activity. The background fluorescence of the medium is subtracted from all measurements and the assay is repeated independently in triplicate.

E. coli CFT073 = assay: Determination of minimum inhibitory concentration (MIC); format: cell-based; settings: Escherichia coli, CFT073, 18 h
Method: (§2) A range of concentration of antibiotics, ciprofloxacin (0.0003-0.25 μg mL^−1) and carbenicillin (0.5-512 μg mL^−1), are chosen due to their known potency against all four bacterial strains. Dilutions are prepared in flat bottom, 96 well microtitre plates (Falcon™, Corning™, Fisher Scientific, ON, Canada). Each well of a microtitre plate is then inoculated with the desired bacterial strain (grown in MHB-II and diluted to […]) and the plate is incubated at 37° C. for 18 h under static conditions. Bacterial growth is assessed by (i) monitoring the optical density of the cell suspension in each well at 600 nm (OD600 nm), and (ii) the resazurin microtitre plate assay. In the resazurin microtitre plate assay, each well of a microtitre plate is supplemented with 20 μM resazurin, incubated in the dark for 20 min at room temperature, followed by fluorescence measurements at ex/em 570/590 nm using a TECAN Infinite M200 Pro microplate reader (Tecan Group Ltd., Switzerland). The lowest concentration of a compound able to prevent increase in OD600 nm and resazurin fluorescence intensity is recorded as the MIC for that compound.

P. aeruginosa PA14 = assay: as above; format: cell-based; settings: Pseudomonas aeruginosa, PA14, 18 h
Method: as §2

P. mirabilis HI4320 [2] = assay: as above; format: cell-based; settings: Proteus mirabilis, HI4320, 18 h
Method: as §2

P. aeruginosa PAO1 = assay: as above; format: cell-based; settings: Pseudomonas aeruginosa, PAO1, 18 h
Method: as §2

E. coli CFT073 biofilm = assay: Biofilm formation, microtitre plate crystal violet assay; format: cell-based, Escherichia coli; settings: p<0.05
Method: (§3) Biofilm formation is quantified using the standard microtitre plate model. […] Aliquots (100 μL) of these cultures are transferred into the wells of polystyrene, flat bottom, non-treated 96 well plates (Falcon™, Corning™), in triplicate. For all assays, biofilms are allowed to develop for 16 h at 37° C. under static conditions, after which OD600 values are recorded, the spent broth is decanted from the wells, and the wells are gently rinsed three times with DI water. The washed biofilm is stained with crystal violet (CV). For CV stain assay, 100 μL of 0.1% (w/v) CV is loaded in each well and the plates are incubated for 15 min under static conditions at room temperature. The wells are subsequently rinsed with DI water to remove excess dye and the CV adsorbed to the biomass in each well is solubilized in 100 μL of absolute ethanol for 10 min. The solubilized CV is then quantified (as OD570) using a microplate reader. Control experiments are performed with cell-free broth to adjust for the background signal.

[3] = system: proton motive force-driven multidrug efflux pump of E. coli CFT073; assay: Ethidium bromide (EtBr) efflux assay; format: cell-based, Escherichia coli; settings: PRMSE, catechol at 0.25 times the MIC; CCCP 100 μM; untreated cells 36.9
Method: as §1

P. mirabilis HI4320 [4] = assay: Bacterial colony forming ability (CFU counts after exposure); format: cell-based, Proteus mirabilis; settings: log decrease vs untreated control, 4 × MIC, 10 min, CTAB 10 μM
Method: (§4) The BacLight kit (L-13152, Invitrogen™, Life Technologies Inc., Canada) is used to assess cell membrane damage. Overnight bacterial cultures are diluted 1:40 in fresh MHBII broth to a final volume of 5 mL, grown to an OD600 of 0.5-0.6, washed with filter-sterilized 10 mM phosphate buffered saline (PBS, pH 7.0) and resuspended in 1/10 of the original volume. […] Cultures are incubated at room temperature (21±2° C.) on a tube rocker for 10 min. At the end of the incubation period, an aliquot is taken for CFU counts and the remaining suspension is washed with 10 mM PBS and resuspended to an OD600) of 0.3. An aliquot (100 μL) of each bacterial suspension is removed and added to a 96-well, black, clear-bottom plate (Corning™, Fisher Scientific, ON, Canada) along with an equal volume of the BacLight™ reagent (2× stock solution, L13152, Invitrogen™, Life Technologies Inc., Canada) and the plates are incubated for 10 min at room temperature in the dark. At the end of the incubation period, fluorescence intensity is recorded for both kit components, SYTO-9 (ex/em 485/530 nm) and propidium iodide (ex/em 485/645 nm), using the microplate reader. Fluorescence readings from samples are normalized to the values obtained from untreated control to determine the ratio of membrane compromised cells to cells with intact membrane. Cetyltrimethylammonium bromide (CTAB, Sigma-Aldrich Canada), a cationic detergent that is known to cause membrane damage, is used at concentration of 10 μM as a positive control for membrane disruption.

[5] = system: P. mirabilis HI4320 biofilm; assay: Biofilm formation, microtitre plate crystal violet assay; format: cell-based, Proteus mirabilis; settings: p<0.05
Method: as §3

[6] = system: cell membrane of P. mirabilis HI4320; assay: BacLight membrane integrity assay; format: cell-based, Proteus mirabilis; settings: PRMSE, catechol at 4 × MIC for 10 min; CTAB 10 μM; untreated = 100
Method: as §4, with “Cetyltrimethylammonium bromide (CTAB, Sigma-Aldrich Canada), a cationic detergent that is known to cause membrane damage, is used at concentration of 10 μM as a positive control for membrane disruption.” left out

[7] = substance alone at sub-lethal concentrations, 16 h
[8] = with ciprofloxacin, both at sub-lethal concentrations

## Oc1ccccc1O [catechol, 1,2-dihydroxybenzene]
[1]
  Efflux pump activity: 33.9%
E. coli CFT073
  MIC: 1250 µg/mL (≈ 11.4 mM)
P. aeruginosa PA14
  MIC: 2500 µg/mL (≈ 22.7 mM)
P. mirabilis HI4320 [2]
  MIC: 1250 µg/mL (≈ 11.4 mM)
P. aeruginosa PAO1
  MIC: 2500 µg/mL (≈ 22.7 mM)
E. coli CFT073 biofilm; [7]
  inhibition of monoculture biofilm formation (OD570/OD600): significant inhibitory effects
E. coli CFT073 biofilm; [8]
  inhibitory effect on biofilm formation, with ciprofloxacin: significant inhibitory effects
[3]
  Efflux pump activity: 34.3%
P. mirabilis HI4320 [4]
  Bacterial colony forming ability (Δ log CFU mL^−1): 3.2 Δ log CFU mL^−1
P. mirabilis HI4320 [4]; listed as Catechol
  Bacterial colony forming ability (Δ log CFU mL^−1): ≥ 1.5 Δ log CFU mL^−1
[5]; [7]
  inhibition of monoculture biofilm formation (OD570/OD600): significant inhibitory effects
[5]; [8]
  inhibitory effect on biofilm formation, with ciprofloxacin: significant inhibitory effects
[6]
  % cells with uncompromised membrane: 50.3%
